Experimental data as given in patent publication US9447075B2, “Pyridazine derivatives as EAAT2 activators” (The Brigham and Women's Hospital, Inc., priority 2011, dated 2016).
“And” between values parts separate entries of the source, which are not always exact repeats. Equal entries are not always repeated.

System: EAAT2
Test: EAAT2 protein levels in PA-EAAT2 cells by Western blot
Assay type: cell-based, human
Details: for Fold increase for EAAT2, 24 h / Fold increase for EAAT2, 4 h: compound 10 μM, PA-EAAT2 cells, relative to DMSO controls, na = not active; for Fold increase for EAAT2, 24 h: 24 h incubation; for SAR comparison of activity on EAAT2 protein levels, in words: relative to parent/comparator analogue, Tables 1-4; for Fold increase for EAAT2, 4 h: 4 h incubation; for Improvement of potency/activity compared to 1: compared to compound 1, Table 4
Method: All of the derivates of 1 were initially evaluated in PA-EAAT2 cells^3 (a primary astrocyte line stably expressing EAAT2 mRNAs) following compound (10 μM) incubation for 4 and 24 h before harvesting and measuring EAAT2 levels by Western blot analysis. The fold increases in EAAT2 protein levels relative to DMSO controls are reported (Tables 1-4).
Characterization and efficacy studies of a compound, Compound 212320 (FIG. 6A) is shown. […] In the absence of serum, PA-EAAT2 cells express low amounts of EAAT2 protein, although the recombinant EAAT2 mRNA are expressed (translational silencing); however, EAAT2 protein levels are increased when an activator is added to the culture (translational activation). This cell line was used for high-throughput screening to identify EAAT2 translational activators. To prioritize candidate compounds, we initially evaluated activation of EAAT2 protein in PA-EAAT2 cells. Promising compounds were further evaluated in primary dissociated neuron and astrocyte mixed cultures and then in mice. FIG. 6 presents the characterization of Compound 212320 in PA-EAAT2 cells. Compound 212320 increased EAAT2 protein levels in a dose—(FIG. 6B) and time—(FIG. 6C) dependent manner. Importantly, the induction occurred in a short amount of time (within 1-2 hr) and was sustained even up to 72 hr (data not show). Additionally, induction occurred at low nanomolar concentrations. […] (FIG. 6D).

Row | SMILES | Fold increase for EAAT2, 24 h | SAR comparison of activity on EAAT2 protein levels, in words | Fold increase for EAAT2, 4 h | Improvement of potency/activity compared to 1 | EAAT2 protein levels, dose dependence (after 24 h exposure) | Activity (EAAT2 increase), in words (compounds 23-27 assessed)
1 | Cc1ccccc1CNC(=O)c1ccc(-c2ccccn2)nn1 [Compound 17-2] | 1.4 ± 0.2 fold | not tolerated |  |  |  | 
2 | Fc1ccc(CSc2ccc(-c3ccccn3)nn2)cc1 [Compound 7-24] | 2.6 ± 0.3 fold | did not result in significant improvement | 2.5 ± 0.6 fold |  |  | 
3 | CCCNC(=O)c1ccc(-c2ccccn2)nn1 [Compound 17-1] | 1.2 ± 0.2 fold | not tolerated |  |  |  | 
4 | Cc1ccc(-c2ccc(SCc3c(F)cccc3Cl)nn2)cc1 [Compound 7-3] | 2.3 ± 0.7 fold |  | 1.2 ± 0.2 fold |  |  | 
5 | Fc1cccc(F)c1CSc1ccc(-c2ccccn2)nn1 [Compound 7-25] | 2.2 ± 0.7 fold | did not result in significant improvement | 2.1 ± 1.4 fold |  |  | 
6 | Cc1ccc(CSc2ccc(-c3ccccn3)nn2)c(C)c1 [Compound 7-17] | 6.4 ± 1.0 fold | increased potency | 1.9 ± 0.8 fold |  |  | 
7 | Cc1ccccc1CS(=O)(=O)c1ccc(-c2ccccn2)nn1 [Compound 9-2] | 1.1 ± 0.2 fold | detrimental | 2.3 ± 0.4 fold |  |  | 
8 | O=S(=O)(Cc1ccccc1Cl)c1ccc(-c2ccccn2)nn1 [Compound 9-3] |  | detrimental | 1.6 ± 0.3 fold |  |  | 
9 | Fc1cccc(Cl)c1CSc1ccc(-c2cccnc2)nn1 [Compound 7-1] | 2.3 ± 0.8 fold | reduced activity |  |  |  | 
10 | Fc1ccccc1CSc1ccc(-c2ccccn2)nn1 [Compound 7-23] | 3.1 ± 0.2 fold | improved activity | 2.2 ± 0.1 fold |  |  | 
11 | Clc1cccc(Cl)c1CSc1ccc(-c2ccccn2)nn1 [Compound 7-22] | 3.9 ± 0.4 fold |  | 1.5 ± 0.8 fold | two-fold |  | 
12 | Cc1cccc(C)c1CSc1ccc(-c2ccccn2)nn1 [Compound 7-13] | 6.5 ± 1.0 fold | increased potency |  |  |  | 
13 | Clc1ccccc1CSc1ccc(-c2ccncc2)nn1 [Compound 7-9] | 1.7 ± 0.3 fold | reduced activity | 1.5 ± 0.2 fold |  |  | 
14 | Cc1ccccc1CSc1ccc(-c2ccccn2)cn1 [Compound 22] |  |  | 1.3 ± 0.6 fold |  |  | 
15 | Cc1ccccc1CSc1ccc(-c2cccnc2)nn1 [Compound 7-5] |  | reduced activity | 1.5 ± 0.4 fold |  |  | 
16 | O=S(=O)(Cc1c(F)cccc1Cl)c1ccc(-c2ccccn2)nn1 [Compound 9-1] | 2.8 ± 0.4 fold | detrimental | 1.4 ± 0.3 fold |  |  | 
17 | Cc1ccccc1CNc1ccc(-c2ccccn2)nn1 [Compound 14] | 2.6 ± 0.5 fold | weaker activity | 1.7 ± 1.1 fold |  |  | 
18 | Cc1ccc(CSc2ccc(-c3ccncc3)nn2)cc1 [Compound 7-11] | 2.4 ± 0.6 fold | reduced activity | 1.3 ± 0.1 fold |  |  | 
19 | Cc1cc(C)c(CSc2ccc(-c3ccccn3)nn2)c(C)c1 [Compound 7-30] | 4.7 ± 0.5 fold | increased potency | 1.7 ± 0.3 fold |  |  | 
20 | Fc1cccc(Cl)c1CCOc1ccc(-c2ccccn2)nn1 [Compound 8-5] | 3.1 ± 1.2 fold |  | 2.2 ± 0.4 fold |  |  | 
21 | Fc1ccc(COc2ccc(-c3ccccn3)nn2)c(F)c1 [Compound 8-6] | 2.3 ± 0.6 fold |  |  |  |  | 
22 | Fc1cccc(Cl)c1CCSc1ccc(-c2ccccn2)nn1 [Compound 7-15] | 6.7 ± 1.5 fold | more potent | 1.9 ± 0.7 fold |  |  | 
23 | Cc1ccc(COc2ccc(-c3ccccn3)nn2)c(C)c1 [Compound 8-7] | 2.0 ± 0.9 fold |  |  |  |  | 

Row | SMILES | Fold increase for EAAT2, 24 h | SAR comparison of activity on EAAT2 protein levels, in words | Fold increase for EAAT2, 4 h | Improvement of potency/activity compared to 1 | EAAT2 protein levels, dose dependence (after 24 h exposure) | Activity (EAAT2 increase), in words (compounds 23-27 assessed)
24 | Cc1ccc(Sc2ccc(-c3ccccn3)nn2)c(C)c1 [Compound 7-29] | 2.2 ± 0.3 fold | decreased potency | 1.2 ± 0.3 fold |  |  | 
25 | c1ccc(-c2ccc(SC3CCCc4ccccc43)nn2)nc1 (racemic) [Compound 7-33] | 5.3 ± 1.1 fold |  |  | about 3 fold |  | 
26 | Fc1cccc(Cl)c1CSc1ccc(-c2ccccn2)nn1 [Compound 1] | 2.0 ± 0.8 fold |  |  |  | dose-dependent increase | 
27 | Fc1ccc(Sc2ccc(-c3ccccn3)nn2)c(Cl)c1 [Compound 7-34] | 2.5 ± 0.7 fold |  | 1.3 ± 0.1 fold |  |  | 
28 | Clc1ccccc1CSc1ccc(-c2cccnc2)nn1 [Compound 7-8] | 1.2 ± 0.3 fold | reduced activity | 1.2 ± 0.4 fold |  |  | 
29 | CC(C)OC(=O)c1ccc(-c2ccccn2)nn1 [Compound 27] |  |  |  |  |  | active
30 | Fc1ccc(CSc2ccc(-c3ccccn3)nn2)c(F)c1 [Compound 7-16] | 3.8 ± 0.8 fold | improved activity | 2.4 ± 1.5 fold |  |  | 
31 | Cc1ccc(CSc2ccc(-c3ccccn3)nn2)cc1 [Compound 7-10] | 2.6 ± 0.4 fold |  | 2.1 ± 1.1 fold |  |  | 
32 | c1ccc(CSc2ccc(-c3ccccn3)nn2)cc1 [Compound 7-12] | 3.0 ± 0.4 fold and 3.0 ± 0.5 fold | essentially the same potency as 1 | 1.3 ± 0.2 fold |  |  | 
33 | Cc1cccc(CSc2ccc(-c3ccccn3)nn2)c1 [Compound 7-27] | 2.8 ± 0.5 fold | less potent | 2.0 ± 0.2 fold |  |  | 
34 | c1ccc(CSc2ccc(-c3ccccn3)cc2)cc1 [Compound 19] | 1.1 ± 0.4 fold |  | 1.2 ± 0.5 fold |  |  | 
35 | Clc1ccc(CSc2ccc(-c3ccccn3)nn2)c(Cl)c1 [Compound 7-21] |  | equivalent to 1 | 1.8 ± 0.5 fold |  |  | 
36 | CC(Sc1ccc(-c2ccccn2)nn1)c1c(F)cccc1Cl (racemic) [Compound 7-14] | 5.5 ± 1.0 fold |  | 1.7 ± 0.9 fold | about 3 fold |  | 
37 | Clc1cccc(CSc2ccc(-c3ccccn3)nn2)c1 [Compound 7-18] | 4.1 ± 0.5 fold |  | 2.1 ± 0.3 fold | two-fold |  | 
38 | CC(Oc1ccc(-c2ccccn2)nn1)c1c(F)cccc1Cl (racemic) [Compound 8-4] | 3.0 ± 0.7 fold |  | 1.6 ± 0.2 fold |  |  | 
39 | Cc1ccccc1COc1ccc(-c2ccccn2)nc1 [Compound 15] |  |  | 1.5 ± 0.3 fold |  |  | 
40 | Cc1ccccc1CSc1ccc(-c2ccccc2)nn1 [Compound 7-6] | 2.0 ± 0.4 fold | reduced activity | 1.1 ± 0.1 fold |  |  | 
41 | Oc1ccc(-c2ccccn2)nn1 [Compound 5-1] | 1.6 ± 1.0 fold |  | 1.5 ± 0.5 fold |  |  | 
42 | Cc1cccc(C)c1COc1ccc(-c2ccccn2)nn1 [Compound 8-3] | 3.2 ± 1.4 fold |  | 2.1 ± 1.2 fold |  |  | 
43 | Fc1cc(F)c(CSc2ccc(-c3ccccn3)nn2)c(F)c1 [Compound 7-26] | 2.4 ± 0.6 fold | did not result in significant improvement | 1.6 ± 1.0 fold |  |  | 
44 | Clc1cccc(CSc2ccc(-c3ccccn3)nn2)c1Cl [Compound 7-19] | 2.4 ± 0.4 fold | equivalent to 1 |  |  |  | 
45 | CCSc1ccc(-c2ccccn2)nn1 [Compound 7-36] | 1.9 ± 0.9 fold | essentially the same potency as 1 | 1.6 ± 0.7 fold |  |  | 
46 | Clc1ccccc1CSc1ccc(-c2ccccn2)nn1 [Compound 7-7] | 4.0 ± 0.3 fold |  | 2.1 ± 1.4 fold | two-fold |  | 
